Series [1] relates to CFA-injected mice. The experiment in a line: CFA inflammatory pain model, incapacitance testing.
A short description of series [2]: Resistance to simulated gastric fluid. Type of series: in vitro ADME. The method, then: Test 14 Arg peptides consisting of 14 contiguous L- or D-arginine amino acids were tested for resistance to simulated gastric fluid (porcine pepsin in a HCl and NaCl solution) at a pH of 2.01 for a period of 24 hours. Negligible degradation of each peptide was observed by exposure to the simulated gastric fluid over the 24 hour test period.

In series [3] the test system is nerve injured rats. Nature of the series: Intrathecal testing in neuropathic pain model, von Frey paw withdrawal threshold. Type of series: in vivo, Sprague-Dawley rats. The conditions noted are these: administered intrathecally, on a molar basis. Here is the method: Experiments were performed on male Sprague-Dawley rats weighing 300-400 g at the start of experiments. Animals were housed 2 or 3 per cage until cannula surgery, after which time they were singly housed for 4 days until the day of experiment. Animals were maintained on standard 12-h light/dark cycle with food and water available ad libitum.
After baseline von Frey measures were taken, animals underwent partial nerve ligation (PNL) surgery, as previously described (Seltzer, Z., Dubner, R., Shir, Y., 1990. A novel behavioural-model of neuropathic pain disorders produced in rats by partial sciatic-nerve injury. Pain 43, 205-218). Briefly, animals were deeply anaesthetised using isoflurane (2.0-2.5% in oxygen), and the sciatic nerve of the left hind-leg was exposed via blunt dissection of the biceps femoris at a site near the trochanter, just distal to the posterior biceps semitendinosus nerve branches of the common sciatic nerve. A 6-0 silk suture was used to tightly ligate the dorsal 30-50% of the nerve. […]
Mechanical paw withdrawal threshold (PWT) was measured using a series of von Frey hairs with bending pressures ranging from 0.41 to 15.1 g. […] The mechanical PWT was calculated using the up-down paradigm (Dixon, W. J., 1980. Efficient analysis of experimental-observations. Annual Review of Pharmacology and Toxicology 20, 441-462). […]

For series [4], the target named is T1, c-Src (h) (Homo sapiens, UniProt P12931).
T1 construct: purchased Eurofins Pharma Discovery Services UK Ltd (contract assay service)
T1 sequence (P12931 whole entry): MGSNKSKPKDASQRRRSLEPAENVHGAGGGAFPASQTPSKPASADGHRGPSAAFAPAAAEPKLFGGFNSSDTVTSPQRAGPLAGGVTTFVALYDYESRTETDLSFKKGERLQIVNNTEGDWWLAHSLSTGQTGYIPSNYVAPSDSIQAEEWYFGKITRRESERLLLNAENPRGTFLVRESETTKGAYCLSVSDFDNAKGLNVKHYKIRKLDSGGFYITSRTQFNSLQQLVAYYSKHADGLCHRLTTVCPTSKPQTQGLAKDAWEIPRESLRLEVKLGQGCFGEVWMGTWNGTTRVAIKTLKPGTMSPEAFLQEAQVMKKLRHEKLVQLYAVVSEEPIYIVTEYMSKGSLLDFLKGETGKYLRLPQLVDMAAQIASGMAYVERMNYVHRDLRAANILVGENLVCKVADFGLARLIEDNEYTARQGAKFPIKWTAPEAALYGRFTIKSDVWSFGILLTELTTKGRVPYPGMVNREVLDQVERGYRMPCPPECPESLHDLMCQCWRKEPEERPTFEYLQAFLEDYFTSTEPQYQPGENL
The experiment in a line: c-Src kinase activity assay, cell free. Type of series: biochemical. The method, then: The capacity of test peptides to inhibit the activity of the kinases PKG1α, PKG1β, and Src family kinases in a cell free assay was assessed. The test peptides were amidated at their C-terminal end (indicated by “—NH2”) unless otherwise noted. Kinase activity assays were conducted by Eurofins Pharma Discovery Services UK Ltd (Dundee Technology Park, Dundee, United Kingdom) and Reaction Biology Corp. (Malvern, Pa., USA).
All test peptides are prepared to 50× final assay concentration in 100% DMSO. This working stock of the test compound is added to assay wells as the first component in the reaction, followed by the remaining components of the respective assay protocols described below. There is no pre-incubation step between the test peptide and the kinase prior to initiation of the reaction. The kinases are diluted in buffer (20 mM MOPS, 1 mM EDTA, 0.01% Brij-35, 5% Glycerol, 0.1% β-mercaptoethanol, 1 mg/mL BSA) prior to addition to the reaction mix.
Positive control wells contain all components of the reaction, except the test peptide of interest. However, DMSO (at a final concentration of 2%) is included in positive control wells to control for solvent effects. Negative control wells contain all components of the reaction, with a reference inhibitor (staurosporine) replacing the test peptide. This abolishes kinase activity and establishes a base-line (0% kinase activity). Kinase assay protocols (Eurofins Pharma Discovery Services UK Ltd, Dundee Technology Park, Dundee, United Kingdom) are described below. Of the Src family kinases, only the assay protocol for c-Src is shown.
c-Src (h) is incubated with 8 mM MOPS pH 7.0, 0.2 mM EDTA, 250 μM KVEKIGEGTYGVVYK (Cdc2 peptide), 10 mM MgAcetate and [γ-^33P]-ATP (specific activity approx. 500 cpm/pmol, concentration as required). The reaction is initiated by the addition of the MgATP mix. After incubation for 40 minutes at room temperature, the reaction is stopped by the addition of 3% phosphoric acid solution. A 10 μL aliquot of the reaction is then spotted onto a P30 filtermat and washed three times for 5 minutes in 75 mM phosphoric acid and once in methanol prior to drying and scintillation counting.

As to `N=C(N)NCCC[C@H](NC(=O)[C@H](CCCNC(=N)N)NC(=O)[C@H](CCCNC(=N)N)NC(=O)[C@H](CCCNC(=N)N)NC(=O)[C@H](CCCNC(=N)N)NC(=O)[C@H](CCCNC(=N)N)NC(=O)[C@H](CCCNC(=N)N)NC(=O)[C@H](CCCNC(=N)N)NC(=O)[C@H](CCCNC(=N)N)NC(=O)[C@H](CCCNC(=N)N)NC(=O)[C@H](CCCNC(=N)N)NC(=O)[C@H](CCCNC(=N)N)NC(=O)[C@H](CCCNC(=N)N)NC(=O)[C@@H](N)CCCNC(=N)N)C(N)=O` [IK01400, RRRRRRRRRRRRRR-NH2], the “alleviation of inflammatory pain” value in series [1] (mice, both doses of the peptide employed) is “alleviated pain”. Also, in series [1] (mice, intra-peritoneal), the hyperactivity result is recorded as “no hyperactivity was observed” and the “time at which peak effect was reached following administration” value was above 1 h. Also, the “effectiveness in incapacitance test, morphine versus IK01400 (8.6 mg/kg)” value in series [1] (second hour after administration) was “more effective than morphine”. Also, the remaining at 1 h in series [2] (pig, simulated gastric fluid with porcine pepsin, simulated gastric fluid pH 2.01, 1 hr, read-out: % of intact peptide observed) is 99.5%. Further, the remaining at 4 h in series [2] (pig, simulated gastric fluid with porcine pepsin, simulated gastric fluid pH 2.01, 4 hrs, read-out: % of intact peptide observed) is 98.5%. In series [2] (pig, simulated gastric fluid with porcine pepsin, simulated gastric fluid pH 2.01, 24 hrs, read-out: % of intact peptide observed), the remaining at 24 h was 98.2%. Further, in series [2] (simulated gastric fluid pH 2.01, time 0), the “% of intact peptide observed” value is given as 98.51%. Further, the “alleviating neuropathic pain (ipsilateral von Frey PWT) compared to morphine” value in series [3] is recorded as “more effective in alleviating neuropathic pain than morphine on a molar basis”. In series [4], this compound came in with an IC50 of 5.5 nM.

For orientation: IC50 means the point on the concentration scale where inhibition reaches its midpoint.
